We go through 16 molecules from patent US7632933B2, “Corticotropin releasing factor 2 receptor agonists” (priority 2002, dated 2009).

One test concerns the target T1, CRF2R (Homo sapiens, UniProt Q13324).
T1 sequence (Q13324 1-411): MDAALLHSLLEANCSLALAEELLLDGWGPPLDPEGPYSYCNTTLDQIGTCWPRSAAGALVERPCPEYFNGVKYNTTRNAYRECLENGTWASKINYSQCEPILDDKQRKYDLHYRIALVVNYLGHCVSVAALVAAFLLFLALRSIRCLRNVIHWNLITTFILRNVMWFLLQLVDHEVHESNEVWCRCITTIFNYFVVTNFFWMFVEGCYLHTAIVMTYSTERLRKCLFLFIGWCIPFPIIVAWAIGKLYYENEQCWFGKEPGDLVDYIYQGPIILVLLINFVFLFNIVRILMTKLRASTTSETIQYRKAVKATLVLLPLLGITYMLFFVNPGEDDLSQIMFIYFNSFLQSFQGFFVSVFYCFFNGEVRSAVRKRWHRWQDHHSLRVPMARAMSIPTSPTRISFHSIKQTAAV
The test can be described thus: CRF2R agonist activity (EC50 and Emax), called comparative CRF binding. It counts as cell-based. The conditions noted are these: CRF2R. Put shortly: (§1)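 Agonism measured through CRE-linked reporter expression or lysate cAMP after peptide treatment of CRF1R- or CRF2R-expressing cells, compared against vehicle-treated cells; background from a co-expressed non-target CRFR is subtracted.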

The target of a further test is T2, CRF1R (Homo sapiens, UniProt P34998).
T2 sequence (P34998 24-415): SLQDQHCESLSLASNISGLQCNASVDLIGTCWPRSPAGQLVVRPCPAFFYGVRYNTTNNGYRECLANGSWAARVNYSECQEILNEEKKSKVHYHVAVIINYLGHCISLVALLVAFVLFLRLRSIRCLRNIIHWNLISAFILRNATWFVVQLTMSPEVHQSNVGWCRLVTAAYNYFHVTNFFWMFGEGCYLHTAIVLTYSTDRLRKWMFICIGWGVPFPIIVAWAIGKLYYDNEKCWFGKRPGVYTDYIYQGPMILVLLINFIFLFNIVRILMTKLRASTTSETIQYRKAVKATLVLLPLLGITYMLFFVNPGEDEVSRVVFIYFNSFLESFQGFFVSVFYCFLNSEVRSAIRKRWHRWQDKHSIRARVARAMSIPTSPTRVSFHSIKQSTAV
Description: CRF1R agonist activity (EC50 and Emax), called comparative CRF binding. It counts as cell-based. Particulars: CRF1R. The method, boiled down: as §1

Where two headings read alike, the source gives them in different places. Ends that are not written are not given here. Peptide text beside a SMILES is read from it.

Turning to `CC[C@H](C)[C@H](N)C(=O)N[C@H](C(=O)N[C@@H](CC(C)C)C(=O)N[C@@H](CO)C(=O)N[C@@H](CC(C)C)C(=O)N[C@@H](CC(=O)O)C(=O)N[C@H](C(=O)N1CCC[C@H]1C(=O)N[C@H](C(=O)NCC(=O)N[C@@H](CC(C)C)C(=O)N[C@@H](CC(C)C)C(=O)N[C@@H](CCC(N)=O)C(=O)N[C@H](C(=O)N[C@@H](CC(C)C)C(=O)N[C@@H](CC(C)C)C(=O)N[C@@H](CCC(=O)O)C(=O)N[C@H](C(=O)N[C@@H](CCC(=O)O)C(=O)N[C@@H](CCCCN)C(=O)N[C@@H](CCC(N)=O)C(=O)N[C@@H](CCC(=O)O)C(=O)N[C@@H](CCCCN)C(=O)N[C@@H](CCC(=O)O)C(=O)N[C@@H](CCCCN)C(=O)N[C@@H](CCC(N)=O)C(=O)N[C@@H](CCC(N)=O)C(=O)N[C@@H](C)C(=O)N[C@@H](C)C(=O)N[C@@H](CC(N)=O)C(=O)N[C@@H](CC(N)=O)C(=O)N[C@@H](CCCNC(=N)N)C(=O)N[C@@H](CC(C)C)C(=O)N[C@@H](CC(C)C)C(=O)N[C@@H](CC(C)C)C(=O)N[C@@H](CC(=O)O)C(=O)N[C@H](C(=O)N[C@H](C(N)=O)[C@@H](C)CC)[C@@H](C)O)[C@@H](C)CC)[C@@H](C)CC)[C@@H](C)CC)C(C)C)C(C)C` [compound 158] (H-IVLSLDVPIGLLQILLEIEKQEKEKQQAANNRLLLDTI-NH2), the EC50 – broadly, the concentration that produces a half-maximal response – on CRF2R (CRF2R EC50 (nM)) was 6.37 nM; on CRF1R (CRF1R EC50 (nM)) it was more than 100 nM.

On to `CC[C@H](C)[C@H](N)C(=O)N[C@H](C(=O)N[C@@H](CC(C)C)C(=O)N[C@@H](CO)C(=O)N[C@@H](CC(C)C)C(=O)N[C@@H](CC(=O)O)C(=O)N[C@H](C(=O)N1CCC[C@H]1C(=O)N[C@H](C(=O)NCC(=O)N[C@@H](CC(C)C)C(=O)N[C@@H](CC(C)C)C(=O)N[C@@H](CCC(N)=O)C(=O)N[C@H](C(=O)N[C@@H](CC(C)C)C(=O)N[C@@H](CC(C)C)C(=O)N[C@@H](CCC(=O)O)C(=O)N[C@@H](CCC(N)=O)C(=O)N[C@@H](C)C(=O)N[C@@H](CCCCN)C(=O)N[C@@H](C)C(=O)N[C@@H](CCCNC(=N)N)C(=O)N[C@@H](C)C(=O)N[C@@H](C)C(=O)N[C@@H](CCCNC(=N)N)C(=O)N[C@@H](CCC(=O)O)C(=O)N[C@@H](CCC(N)=O)C(=O)N[C@@H](C)C(=O)N[C@H](C(=O)N[C@H](C(=O)N[C@@H](CC(N)=O)C(=O)N[C@@H](C)C(=O)N[C@@H](CCCNC(=N)N)C(=O)N[C@H](C(=O)N[C@@H](CC(C)C)C(=O)N[C@@H](C)C(=O)N[C@@H](CCCNC(=N)N)C(=O)N[C@H](C(N)=O)C(C)C)[C@@H](C)CC)[C@@H](C)O)[C@@H](C)O)[C@@H](C)CC)[C@@H](C)CC)C(C)C)C(C)C` [compound 127] (H-IVLSLDVPIGLLQILLEQAKARAAREQATTNARILARV-NH2; N-terminus assumed), for which the “CRF2R (Emax %)” value at CRF2R (Emax) is on record as “(94) %”. The EC50 at CRF2R (read-out: CRF2R EC50) amounted to 7.79 nM. For the same molecule, the “CRF1R (Emax %)” value at CRF1R (Emax) is listed as “(6) %”.

Take `CC[C@H](C)[C@H](N)C(=O)N[C@H](C(=O)N[C@@H](CC(C)C)C(=O)N[C@@H](CO)C(=O)N[C@@H](CC(C)C)C(=O)N[C@@H](CC(=O)O)C(=O)N[C@H](C(=O)N1CCC[C@H]1C(=O)N[C@H](C(=O)NCC(=O)N[C@@H](CC(C)C)C(=O)N[C@@H](CC(C)C)C(=O)N[C@@H](CCC(N)=O)C(=O)N[C@H](C(=O)N[C@@H](CC(C)C)C(=O)N[C@@H](CC(C)C)C(=O)N[C@@H](CCC(=O)O)C(=O)N[C@@H](CCC(N)=O)C(=O)N[C@@H](C)C(=O)N[C@@H](CCCNC(=N)N)C(=O)N[C@@H](C)C(=O)N[C@@H](CCCNC(=N)N)C(=O)N[C@@H](C)C(=O)N[C@@H](C)C(=O)N[C@@H](CCCNC(=N)N)C(=O)N[C@@H](CCC(=O)O)C(=O)N[C@@H](CCC(N)=O)C(=O)N[C@@H](C)C(=O)N[C@H](C(=O)N[C@H](C(=O)N[C@@H](CCC(N)=O)C(=O)N[C@@H](C)C(=O)N[C@@H](CCCNC(=N)N)C(=O)N[C@H](C(=O)N[C@@H](CC(C)C)C(=O)N[C@@H](C)C(=O)N[C@@H](CCCNC(=N)N)C(=O)N[C@H](C(N)=O)C(C)C)[C@@H](C)CC)[C@@H](C)O)[C@@H](C)O)[C@@H](C)CC)[C@@H](C)CC)C(C)C)C(C)C` [compound 9] (H-IVLSLDVPIGLLQILLEQARARAAREQATTQARILARV-NH2): the EC50 at CRF2R (read-out: CRF2R EC50) and on CRF1R (read-out: CRF1R EC50) was not below 100 nM each time.

For “NDDPPISIDLPYYLLRNMIEMARIENEREQAGLNAKYLAEV-NH2 [compound 267]”, the results for the EC50 on CRF2R (read-out: CRF2R EC50) and on CRF1R (read-out: CRF1R EC50) were not below 100 nM and not below 1000 nM, respectively.

Take `CC[C@H](C)[C@H](N)C(=O)N[C@H](C(=O)N[C@@H](CC(C)C)C(=O)N[C@@H](CO)C(=O)N[C@@H](CC(C)C)C(=O)N[C@@H](CC(=O)O)C(=O)N[C@H](C(=O)N1CCC[C@H]1C(=O)N[C@H](C(=O)NCC(=O)N[C@@H](CC(C)C)C(=O)N[C@@H](CC(C)C)C(=O)N[C@@H](CCC(N)=O)C(=O)N[C@H](C(=O)N[C@@H](CC(C)C)C(=O)N[C@@H](CC(C)C)C(=O)N[C@@H](CCC(=O)O)C(=O)N[C@@H](CCC(N)=O)C(=O)N[C@@H](C)C(=O)N[C@@H](CCCNC(=N)N)C(=O)N[C@@H](C)C(=O)N[C@@H](C)C(=O)N[C@@H](C)C(=O)N[C@@H](CCCNC(=N)N)C(=O)N[C@@H](CCC(=O)O)C(=O)N[C@@H](CCC(N)=O)C(=O)N[C@@H](C)C(=O)N[C@H](C(=O)N[C@H](C(=O)N[C@@H](CC(N)=O)C(=O)N[C@@H](C)C(=O)N[C@@H](CCCNC(=N)N)C(=O)N[C@H](C(=O)N[C@@H](CC(C)C)C(=O)N[C@@H](C)C(=O)N[C@@H](CCCNC(=N)N)C(=O)N[C@H](C(N)=O)C(C)C)[C@@H](C)CC)[C@@H](C)O)[C@@H](C)O)[C@@H](C)CC)[C@@H](C)CC)C(C)C)C(C)C` [compound 141] (H-IVLSLDVPIGLLQILLEQARAAAREQATTNARILARV-NH2): the EC50 at CRF2R (read-out: CRF2R EC50) and at CRF1R (read-out: CRF1R EC50) was more than 100 nM in each case.

For `CC[C@H](C)[C@H](N)C(=O)N[C@H](C(=O)N[C@@H](CC(C)C)C(=O)N[C@@H](CO)C(=O)N[C@@H](CC(C)C)C(=O)N[C@@H](CC(=O)O)C(=O)N[C@H](C(=O)N1CCC[C@H]1C(=O)NCC(=O)N1CCC[C@H]1C(=O)N[C@@H](CC(C)C)C(=O)N[C@@H](CC(C)C)C(=O)N[C@@H](CCC(N)=O)C(=O)N[C@H](C(=O)N[C@@H](CC(C)C)C(=O)N[C@@H](CC(C)C)C(=O)N[C@@H](CCC(=O)O)C(=O)N[C@@H](CCC(N)=O)C(=O)N[C@H](C(=O)N[C@@H](CCCCN)C(=O)N[C@@H](CCC(N)=O)C(=O)N[C@@H](CCC(=O)O)C(=O)N[C@@H](C)C(=O)N[C@@H](C)C(=O)N[C@@H](CCCNC(=N)N)C(=O)N[C@@H](CCC(=O)O)C(=O)N[C@@H](CCC(N)=O)C(=O)N[C@@H](C)C(=O)N[C@H](C(=O)N[C@H](C(=O)N[C@@H](CC(N)=O)C(=O)N[C@@H](C)C(=O)N[C@@H](CCCNC(=N)N)C(=O)N[C@H](C(=O)N[C@@H](CC(C)C)C(=O)N[C@@H](C)C(=O)N[C@@H](CCCNC(=N)N)C(=O)N[C@H](C(N)=O)C(C)C)[C@@H](C)CC)[C@@H](C)O)[C@@H](C)O)[C@@H](C)O)[C@@H](C)CC)C(C)C)C(C)C` [compound 5] (H-IVLSLDVPGPLLQILLEQTKQEAAREQATTNARILARV-NH2), the EC50 on CRF2R (read-out: CRF2R EC50) and at CRF1R (read-out: CRF1R EC50) was not below 100 nM throughout.

“SQEPPISLDLTIGLLREVLEMTKADQLAQQAHSNRKLLDIA-NH2 [compound 86]”: the concentration for a half-maximal effect (EC50) at CRF2R (read-out: CRF2R EC50) and at CRF1R (read-out: CRF1R EC50) was not below 100 nM each time.

In the case of “NDDPPISIDLPFQLLRNMIEMARIENEREQAGLNAKYLAEV-NH2 [compound 258]”, the concentration for a half-maximal effect (EC50) was not below 100 nM at CRF2R (read-out: CRF2R EC50) and not below 1000 nM on CRF1R (read-out: CRF1R EC50).

On to “SQEPPISLDLPTGLLREVLEMTKADQLAQQAHSNRKLLDIA-NH2 [compound 98]”, for which the EC50 on CRF2R (read-out: CRF2R EC50) and at CRF1R (read-out: CRF1R EC50) was not below 100 nM throughout.

Turning to “NDDPPISIDLPLQLLRNMIEMARIENEREQAGLNAKYLAEV-NH2 [compound 270]”, the EC50 on CRF2R (read-out: CRF2R EC50) is not below 100 nM; at CRF1R (read-out: CRF1R EC50), not below 1000 nM.

On to “SQEPPISLDLPLQLLREVLEMTKADQLAQQAHSNRKLLDIA-NH2 [compound 95]”, for which the EC50 at CRF2R (read-out: CRF2R EC50) and on CRF1R (read-out: CRF1R EC50) was not below 100 nM in each case.

On to “SQEPPISLDLPLGLLREVLEMTKADQLAQQAHSNRKLLDIA-NH2 [compound 90]”, for which the EC50 at CRF2R (read-out: CRF2R EC50) and on CRF1R (read-out: CRF1R EC50) was not below 100 nM each time.

Turning to “NDDPPISIDLPTYLLRNMIEMARIENEREQAGLNAKYLAEV-NH2 [compound 266]”, the results for the concentration for a half-maximal effect (EC50) at CRF2R (read-out: CRF2R EC50) and at CRF1R (read-out: CRF1R EC50) were not below 100 nM and not below 1000 nM, respectively.

For “SQEPPISLDLPLYLLREVLEMTKADQLAQQAHSNRKLLDIA-NH2 [compound 101]”, the EC50 on CRF2R (read-out: CRF2R EC50) and on CRF1R (read-out: CRF1R EC50) was not below 100 nM throughout.

Regarding “SQEPPISLDLPIGLLREVLEMTKADQLAQQAHSNRKLLDIA-NH2 [compound 93]”, the EC50 at CRF2R (read-out: CRF2R EC50) and on CRF1R (read-out: CRF1R EC50) was not below 100 nM in each case.

Regarding “SQEPPISLDLPTYLLREVLEMTKADQLAQQAHSNRKLLDIA-NH2 [compound 106]”, the EC50 on CRF2R (read-out: CRF2R EC50) and on CRF1R (read-out: CRF1R EC50) was not below 100 nM throughout.
